Source: patent US9914730B2, “Azaquinazoline inhibitors of Atypical protein Kinase C” (Ignyta, Inc., priority 2012, dated 2018)

molecular target: T1, full-length human PKCι (Homo sapiens, UniProt P41743); assay: PKCι IC50 IMAP assay, full-length PKCι at 150 μM ATP; assay type: biochemical; details: read-out: IC50 in IMAP assay against full length PKCi at 150 μM ATP
T1 construct: Recombinant, full-length human PKCι expressed in Sf21 insect cells is also commercially available; purchased; host or cells: Sf21 insect cells
T1 sequence (P41743 1-596): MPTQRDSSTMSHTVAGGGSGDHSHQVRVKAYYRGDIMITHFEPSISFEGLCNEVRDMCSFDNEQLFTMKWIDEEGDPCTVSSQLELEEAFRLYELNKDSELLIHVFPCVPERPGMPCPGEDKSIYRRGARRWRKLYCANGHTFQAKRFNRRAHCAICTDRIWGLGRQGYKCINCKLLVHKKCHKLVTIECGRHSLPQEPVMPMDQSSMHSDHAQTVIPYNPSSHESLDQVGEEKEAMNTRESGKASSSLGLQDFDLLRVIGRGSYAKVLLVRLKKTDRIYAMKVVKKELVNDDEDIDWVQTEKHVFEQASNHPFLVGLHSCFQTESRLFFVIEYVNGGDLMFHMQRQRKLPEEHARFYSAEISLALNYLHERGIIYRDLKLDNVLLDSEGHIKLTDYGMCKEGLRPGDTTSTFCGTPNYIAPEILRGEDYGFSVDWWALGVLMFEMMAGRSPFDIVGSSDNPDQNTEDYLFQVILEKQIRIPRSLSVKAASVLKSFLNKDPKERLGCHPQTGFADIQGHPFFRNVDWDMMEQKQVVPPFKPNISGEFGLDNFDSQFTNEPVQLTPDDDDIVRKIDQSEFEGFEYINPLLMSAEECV
Procedure, shortened: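 Full-length human PKCι from Sf21 cells, typically 15 pM, with 100 nM 5FAM-PKCε pseudosubstrate peptide and 150 μM ATP (5× apparent KM), 60 min at room temperature, 4% DMSO. IMAP fluorescence polarisation read-out; inhibition normalised to no-compound and no-enzyme controls, IC50 from curve fit.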

| SMILES | IC50 [nM] |
| --- | --- |
| c1ncc2nc(N3CCOCC3)nc(N3CCNCC3)c2c1C1CC1 [Example 1016, 5-Cyclopropyl-2-morpholin-4-yl-4-piperazin-1-yl-pyrido[3,4-d]pyrimidine] | < 100 |
| NC(=O)c1ccc(Nc2cc(-c3nc(N4CCNCC4)c4c(C5CC5)cncc4n3)ccn2)nc1 [Example 844, 6-[4-(5-Cyclopropyl-4-piperazin-1-yl-pyrido[3,4-d]pyrimidin-2-yl)-pyridin-2-ylamino]-nicotinamide] | < 100 |
| COc1cncc2nc(-c3ccncc3)nc(NC[C@H](Cc3ccccc3)N(C)C)c12 [Example 49, [(2S)-1-{[5-methoxy-2-(pyridin-4-yl)-pyrido[3,4-d]-pyrimidin-4-yl]-amino}-3-phenylpropan-2-yl]dimethylamine] | 1000 to 10000 |
| FC(F)(F)c1cc2c(-c3nc(N4CCSCC4)c4c(C5CC5)cncc4n3)ccnc2[nH]1 [Example 1246, 5-Cyclopropyl-4-thiomorpholin-4-yl-2-(2-trifluoromethyl-1H-pyrrolo[2,3-b]pyridin-4-yl)-pyrido[3,4-d]pyrimidine] | 10000 to 40000 |
| COc1cncc2nc(-c3ccnc(NC(=O)Cc4cccnc4)c3)nc(N[C@@H]3CCNC3)c12 [Example 396, N-{4-[5-Methoxy-4-((R)-pyrrolidin-3-ylamino)-pyrido[3,4-d]pyrimidin-2-yl]-pyridin-2-yl}-2-pyridin-3-yl-acetamide] | < 100 |
| Fc1cccc(F)c1Nc1cc(-c2nc(N3CCNCC3)c3c(C4CC4)cnc(C4CC4)c3n2)ccn1 [Example 2189, [4-(5,8-Dicyclopropyl-4-piperazin-1-yl-pyrido[3,4-d]pyrimidin-2-yl)-pyridin-2 yl]-(2,6-difluoro-phenyl)-amine] | 100 to 1000 |
| Fc1cccc(F)c1Nc1cc(-c2nc(N3CCNCC3)c3c(C4CC4)cnc(Cl)c3n2)ccn1 [Example 2100, [4-(8-Chloro-5-cyclopropyl-4-piperazin-1-yl-pyrido[3,4-d]pyrimidin-2-yl)-pyridin-2-yl]-(2,6-difluoro-phenyl)-amine] | < 100 |
| c1cc(-c2nc(N3CCNCC3)c3c(C4CC4)cncc3n2)cc(NCC2CC2)n1 [Example 629, Cyclopropyl-methyl-[4-(5-cyclopropyl - 4-piperazin-1-yl-pyrido[3,4-d]pyrimidin-2-yl)-pyridin-2-yl]-amine] | < 100 |
| COc1cncc2nc(-c3ccncc3)nc(N3CC[C@@H](N)C3)c12 [Example 45, (3R)-1-[5-methoxy-2-(pyridin-4-yl)-pyrido[3,4-d]-pyrimidin-4-yl]-pyrrolidin-3-amine] | 1000 to 10000 |
| COc1cncc2nc(-c3ccnc4[nH]ccc34)nc(N3CCNCC3)c12 [Example 1200, 5-Methoxy-4-piperazin-1-yl-2-(1H-pyrrolo[2,3-b]pyridin-4-yl)-pyrido[3,4-d]pyrimidine] | < 100 |
| COc1cncc2nc(-c3ccnc(Nc4cc(C(F)(F)F)ccn4)c3)nc(N3CCNCC3)c12 [Example 367, [4-(5-Methoxy-4-piperazin-1-yl-pyrido[3,4-d]pyrimidin-2-yl)-pyridin-2-yl]-(4-trifluoromethyl-pyridin-2-yl)-amine] | < 100 |
| c1cc(Nc2cc(-c3nc(N4CCNCC4)c4c(C5CC5)cncc4n3)ccn2)cc(C2CC2)c1 [Example 734, (3-Cyclopropyl-phenyl)-[4-(5-cyclopropyl-4-piperazin-1-yl-pyrido[3,4-d]pyrimidin-2-yl)-pyridin-2-yl]-amine] | < 100 |
| COc1cncc2nc(-c3ccnc(Nc4ccccc4)c3)nc(N[C@@H]3CCN(CC(N)=O)C3)c12 [Example 245, 2-{3-[5-Methoxy-2-(2-phenylamino-pyridin-4-yl)-pyrido[3,4-d]pyrimidin-4-ylamino]-R-pyrrolidin-1-yl}-acetamide] | 1000 to 10000 |
| COc1ccc(CC(=O)Nc2cc(-c3nc(N[C@@H]4CCNC4)c4ccncc4n3)ccn2)cc1 [Example 335, 2-(4-Methoxy-phenyl)-N-{4-[4-((R)-pyrrolidin-3-ylamino)-pyrido[3,4-d]pyrimidin-2-yl]-pyridin-2-yl}-acetamide] | 100 to 1000 |
| CN(c1nc(-c2ccnc(Nc3ncc(Cl)cc3F)c2)nc2cncc(C3CC3)c12)C1CCNCC1 [Example 2151, {2-[2-(5-Chloro-3-fluoro-pyridin-2-ylamino)-pyridin-4-yl]-5-cyclopropyl-pyrido[3,4-d]pyrimidin-4-yl}-methyl-piperidin-4-yl-amine] | < 100 |
| N[C@H](CNc1nc(-c2ccncc2)nc2c(Oc3ccccc3)nccc12)Cc1ccccc1 [Example 129, N-[(2S)-2-amino-3-phenylpropyl]-8-phenoxy-2-(pyridin-4-yl)pyrido[3,4-d]pyrimidin-4-amine] | 100 to 1000 |
| Clc1cncc2nc(-c3ccnc(Nc4ccccc4)c3)nc(N3CCNCC3)c12 [Example 246, [4-(5-Chloro-4-piperazin-1-yl-pyrido[3,4-d]pyrimidin-2-yl)-pyridin-2-yl]-phenyl-amine] | 100 to 1000 |
| Fc1ccccc1Nc1cc(-c2nc(N3CCN[C@@H](C4CC4)C3)c3c(C4CC4)cncc3n2)ccn1 [Example 276, {4-[5-Cyclopropyl-4-((S)-3-cyclopropyl-piperazin-1-yl)-pyrido[3,4-d]pyrimidin-2-yl]-pyridin-2-yl}-(2 fluoro-phenyl)-amine] | < 100 |
| COc1cncc2nc(-c3ccnc(Nc4ccc(F)cc4F)c3)nc(N3CCNCC3)c12 [Example 453, (2,4-Difluoro-phenyl)-[4-(5-methoxy-4-piperazin-1-yl-pyrido[3,4-d]pyrimidin-2-yl)-pyridin-2-yl]-amine] | < 100 |
| COc1cccc(Nc2cc(-c3nc(N4CCNCC4)c4c(C5CC5)cncc4n3)ccn2)c1F [Example 589, [4-(5-Cyclopropyl-4-piperazin-1-yl-pyrido[3,4-d]pyrimidin-2-yl)-pyridin-2-yl]-(2-fluoro-3-methoxy-phenyl)-amine] | < 100 |
| Cc1nccc2c(N3CCNCC3)nc(-c3ccncc3)nc12 [Example 160, 8-Methyl-4-piperazin-1-yl-2-pyridin-4-yl-pyrido[3,4-d]pyrimidine] | 10000 to 40000 |
| c1cnnc(Nc2cc(-c3nc(N4CCNCC4)c4c(C5CC5)cncc4n3)ccn2)c1 [Example 545, [4-(5-Cyclopropyl-4-piperazin-1-yl-pyrido[3,4-d]pyrimidin-2-yl)-pyridin-2-yl]-pyridazin-3-yl-amine] | < 100 |
| CC(C)(C)OC(=O)N1CCCN(c2nc(-c3ccncc3)nc3cnccc23)CC1 [Example 23, tert-butyl 4-[2-(pyridin-4-yl)-pyrido[3,4-d]pyrimidin-4-yl]-1,4-diazepane-1-carboxylate] | 10000 to 40000 |
| COc1cncc2nc(-c3ccnc(NC(=O)Cc4ccc(C#N)cc4)c3)nc(N3CCNCC3)c12 [Example 355, 2-(4-Cyano-phenyl)-N-[4-(5-methoxy-4-piperazin-1-yl-pyrido[3,4-d]pyrimidin-2-yl)-pyridin-2-yl]-acetamide] | < 100 |
| FC(F)(F)c1cc2c(-c3nc(NC4CCNCC4)c4c(C5CC5)cncc4n3)ccnc2[nH]1 [Example 2068, [5-Cyclopropyl-2-(2-trifluoromethyl-1H-pyrrolo[2,3-b]pyridin-4-yl)-pyrido[3,4-d]pyrimidin-4-yl]-piperidin-4-yl-amine] | < 100 |
| Fc1cnc(Nc2cc(-c3nc(N4CC5CNCC5C4)c4c(C5CC5)cncc4n3)ccn2)c(F)c1 (stereo not drawn) [Example 2132, {4-[5-Cyclopropyl-4-(hexahydro-pyrrolo[3,4-c]pyrrol-2-yl)-pyrido[3,4-d]pyrimidin-2-yl]-pyridin-2-yl}-(3,5-difluoro-pyridin-2-yl)-amine] | < 100 |
| CS(=O)(=O)c1ccc(F)c(Nc2cc(-c3nc(N4CCNCC4)c4c(C5CC5)cncc4n3)ccn2)c1 [Example 556, [4-(5-Cyclopropyl-4-piperazin-1-yl-pyrido[3,4-d]pyrimidin-2-yl)-pyridin-2-yl]-(2-fluoro-5-methanesulfonyl-phenyl)-amine] | < 100 |
| CCCCc1cncc2nc(-c3ccncc3)nc(N3CCNCC3)c12 [Example 135, 5-Butyl-4-piperazin-1-yl-2-pyridin-4-yl-pyrido[3,4-d]pyrimidine] | < 100 |
| CN(c1nc(-c2ccnc(Nc3c(F)cccc3F)c2)nc2cncc(C3CC3)c12)C1CCN(CC(F)F)CC1 [Example 2123, {5-Cyclopropyl-2-[2-(2,6-difluoro-phenylamino)-pyridin-4-yl]-pyrido[3,4-d]pyrimidin-4-yl}-[1-(2,2-difluoro-ethyl)-piperidin-4-yl]-methyl-amine] | 100 to 1000 |
| Fc1ccc(F)c(Nc2cc(-c3nc(N4CCNCC4)c4c(C5CC5)cncc4n3)ccn2)c1Cl [Example 635, (2-Chloro-3,6-difluoro-phenyl)-[4-(5-cyclopropyl-4-piperazin-1-yl-pyrido[3,4-d]pyrimidin-2-yl)-pyridin-2-yl]-amine] | < 100 |
